Results: PubChem BioAssay AID1919003 (Molecular Pharmacology Branch, DTP, NCI, 2023)

Tested on: 786-0 complex spheroids with HUVEC/MSC, growth % test/control
Test: Anticancer human tumor 786-0 cell line growth inhibition [AhR];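 also: compound exposure lasted seven days before the read-out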
Settings: for IC50: curve of first compound; for viability, T/C: stronger effect = lower value
Method in brief: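 Spheroids combined tumor cells with HUVEC endothelial cells and human MSCs as stroma. AhR antagonists were paired with standard or investigational drugs, each dosed in half-log steps down from near clinical Cmax, or from 10 microM where Cmax was unknown.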

[1] = second compound 0.1 µM, first compound 0.0316 µM
[2] = second compound 0.1 µM, first compound 0.1 µM
[3] = second compound 0.1 µM, first compound 0.316 µM
[4] = second compound 0.1 µM, first compound 1 µM
[5] = second compound 0.1 µM, first compound 3.16 µM
[6] = second compound 0.1 µM, first compound 10 µM
[7] = second compound 0.316 µM, first compound 0.0316 µM
[8] = second compound 0.316 µM, first compound 0.1 µM
[9] = second compound 0.316 µM, first compound 0.316 µM
[10] = second compound 0.316 µM, first compound 1 µM
[11] = second compound 0.316 µM, first compound 3.16 µM
[12] = second compound 0.316 µM, first compound 10 µM
[13] = second compound 1 µM, first compound 0.0316 µM
[14] = second compound 1 µM, first compound 0.1 µM
[15] = second compound 1 µM, first compound 0.316 µM
[16] = second compound 1 µM, first compound 1 µM
[17] = second compound 1 µM, first compound 3.16 µM
[18] = second compound 1 µM, first compound 10 µM
[19] = second compound 3.16 µM, first compound 0.0316 µM
[20] = second compound 3.16 µM, first compound 0.1 µM
[21] = second compound 3.16 µM, first compound 0.316 µM
[22] = second compound 3.16 µM, first compound 1 µM
[23] = second compound 3.16 µM, first compound 3.16 µM
[24] = second compound 3.16 µM, first compound 10 µM
[25] = second compound 10 µM, first compound 0.0316 µM
[26] = second compound 10 µM, first compound 0.1 µM
[27] = second compound 10 µM, first compound 0.316 µM
[28] = second compound 10 µM, first compound 1 µM
[29] = second compound 10 µM, first compound 3.16 µM
[30] = second compound 10 µM, first compound 10 µM

COc1cc(Nc2ncc3c(n2)-c2ccc(Cl)cc2C(c2c(F)cccc2OC)=NC3)ccc1C(=O)O + Cc1ccccc1N=Nc1ccc(NC(=O)c2ccnn2C)c(C)c1
IC50 (second compound 0.1 µM): 4.13 µM
IC50 (second compound 0.316 µM): 3.61 µM
IC50 (second compound 1 µM): 3.78 µM
IC50 (second compound 3.16 µM): 4.82 µM
IC50 (second compound 10 µM): 5.41 µM
viability, T/C [1]: 98.7%
viability, T/C [2]: 109%
viability, T/C [3]: 117%
viability, T/C [4]: 84.7%
viability, T/C [5]: 58.3%
viability, T/C [6]: 30.1%
viability, T/C [7]: 107%
viability, T/C [8]: 107%
viability, T/C [9]: 133%
viability, T/C [10]: 91.6%
viability, T/C [11]: 55.1%
viability, T/C [12]: 28.7%
viability, T/C [13]: 108%
viability, T/C [14]: 109%
viability, T/C [15]: 121%
viability, T/C [16]: 89.2%
viability, T/C [17]: 55.5%
viability, T/C [18]: 30.2%
viability, T/C [19]: 95.8%
viability, T/C [20]: 98.4%
viability, T/C [21]: 103%
viability, T/C [22]: 82.3%
viability, T/C [23]: 63.2%
viability, T/C [24]: 29.2%
viability, T/C [25]: 83.3%
viability, T/C [26]: 85.3%
viability, T/C [27]: 106%
viability, T/C [28]: 91.8%
viability, T/C [29]: 60.2%
viability, T/C [30]: 38.2%

Cn1ncnc1C1c2n[nH]c(=O)c3cc(F)cc(c23)NC1c1ccc(F)cc1 (stereo not given) + Cc1ccccc1N=Nc1ccc(NC(=O)c2ccnn2C)c(C)c1
IC50 (second compound 0.1 µM): > 0.1 µM
IC50 (second compound 0.316 µM): > 0.1 µM
IC50 (second compound 1 µM): > 0.1 µM
IC50 (second compound 3.16 µM): > 0.1 µM
IC50 (second compound 10 µM): > 0.1 µM
viability, T/C (second compound 0.1 µM, first compound 0.000316 µM): 104%
viability, T/C (second compound 0.1 µM, first compound 0.001 µM): 102%
viability, T/C (second compound 0.1 µM, first compound 0.00316 µM): 107%
viability, T/C (second compound 0.1 µM, first compound 0.01 µM): 101%
viability, T/C [1]: 101%
viability, T/C [2]: 107%
viability, T/C (second compound 0.316 µM, first compound 0.000316 µM): 103%
viability, T/C (second compound 0.316 µM, first compound 0.001 µM): 106%
viability, T/C (second compound 0.316 µM, first compound 0.00316 µM): 106%
viability, T/C (second compound 0.316 µM, first compound 0.01 µM): 106%
viability, T/C [7]: 110%
viability, T/C [8]: 111%
viability, T/C (second compound 1 µM, first compound 0.000316 µM): 101%
viability, T/C (second compound 1 µM, first compound 0.001 µM): 106%
viability, T/C (second compound 1 µM, first compound 0.00316 µM): 108%
viability, T/C (second compound 1 µM, first compound 0.01 µM): 117%
viability, T/C [13]: 99.7%
viability, T/C [14]: 110%
viability, T/C (second compound 3.16 µM, first compound 0.000316 µM): 92.3%
viability, T/C (second compound 3.16 µM, first compound 0.001 µM): 105%
viability, T/C (second compound 3.16 µM, first compound 0.00316 µM): 92%
viability, T/C (second compound 3.16 µM, first compound 0.01 µM): 94%
viability, T/C [19]: 88.9%
viability, T/C [20]: 91.2%
viability, T/C (second compound 10 µM, first compound 0.000316 µM): 98.6%
viability, T/C (second compound 10 µM, first compound 0.001 µM): 112%
viability, T/C (second compound 10 µM, first compound 0.00316 µM): 90.5%
viability, T/C (second compound 10 µM, first compound 0.01 µM): 93.5%
viability, T/C [25]: 95.3%
viability, T/C [26]: 112%

NS(=O)(=O)OCC1CC(n2ccc3c(NC4CCc5ccccc54)ncnc32)CC1O (stereo not given) + Cc1ccccc1N=Nc1ccc(NC(=O)c2ccnn2C)c(C)c1
IC50 (second compound 0.1 µM): 0.563 µM
IC50 (second compound 0.316 µM): 0.652 µM
IC50 (second compound 1 µM): 0.499 µM
IC50 (second compound 3.16 µM): 0.437 µM
IC50 (second compound 10 µM): 0.374 µM
viability, T/C [1]: 90%
viability, T/C [2]: 78.6%
viability, T/C [3]: 65.5%
viability, T/C [4]: 37%
viability, T/C [5]: 8.68%
viability, T/C [6]: 5.47%
viability, T/C [7]: 87.3%
viability, T/C [8]: 69.5%
viability, T/C [9]: 68.1%
viability, T/C [10]: 42.2%
viability, T/C [11]: 10.6%
viability, T/C [12]: 6.57%
viability, T/C [13]: 88%
viability, T/C [14]: 68%
viability, T/C [15]: 63.2%
viability, T/C [16]: 37.5%
viability, T/C [17]: 9.47%
viability, T/C [18]: 5.05%
viability, T/C [19]: 73.8%
viability, T/C [20]: 65%
viability, T/C [21]: 59.4%
viability, T/C [22]: 29.1%
viability, T/C [23]: 9.11%
viability, T/C [24]: 4.17%
viability, T/C [25]: 76.1%
viability, T/C [26]: 69.5%
viability, T/C [27]: 54.3%
viability, T/C [28]: 27.4%
viability, T/C [29]: 11.3%
viability, T/C [30]: 6.68%

O=C(C=Cc1cccc(S(=O)(=O)Nc2ccccc2)c1)NO + Cc1ccccc1N=Nc1ccc(NC(=O)c2ccnn2C)c(C)c1
IC50 (second compound 0.1 µM): 6.06 µM
IC50 (second compound 0.316 µM): 6.08 µM
IC50 (second compound 1 µM): 6.3 µM
IC50 (second compound 3.16 µM): 5.7 µM
IC50 (second compound 10 µM): 4.61 µM
viability, T/C [1]: 89.2%
viability, T/C [2]: 103%
viability, T/C [3]: 88.4%
viability, T/C [4]: 94.3%
viability, T/C [5]: 87.7%
viability, T/C [6]: 20.9%
viability, T/C [7]: 100%
viability, T/C [8]: 97.1%
viability, T/C [9]: 101%
viability, T/C [10]: 101%
viability, T/C [11]: 86.4%
viability, T/C [12]: 22.1%
viability, T/C [13]: 98.2%
viability, T/C [14]: 100%
viability, T/C [15]: 106%
viability, T/C [16]: 93.5%
viability, T/C [17]: 90.7%
viability, T/C [18]: 22.5%
viability, T/C [19]: 85%
viability, T/C [20]: 91.4%
viability, T/C [21]: 85.8%
viability, T/C [22]: 81.9%
viability, T/C [23]: 80%
viability, T/C [24]: 21.4%
viability, T/C [25]: 93.5%
viability, T/C [26]: 87.2%
viability, T/C [27]: 85.9%
viability, T/C [28]: 85.5%
viability, T/C [29]: 67.3%
viability, T/C [30]: 14.2%
